Laboratory results as given in patent publication US20250197407A1 (Jazz Pharmaceuticals Ireland Limited, priority 2022, published 2025).

Molecular target: SOS1/KRAS WT (Homo sapiens (Human), UniProt Q07889)
Assay: SOS1/KRAS WT HTRF binding assay (FRET-based protein-protein interaction)
Conditions: inhibition of His6-SOS1 (aa564-1049, 40 nM) binding to GST-KRAS-WT (aa1-188, 40 nM); at least two independent replicates; read-out: SOS1/KRAS WT HTRF Binding assay pIC50 (converted)
Procedure, shortened: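 GST-KRAS WT (aa1-188, 40 nM) and His6-SOS1 exchange domain (aa564-1049, 40 nM) were incubated 60 min at room temperature with compound dose response in HEPES pH7.3 buffer with 10 mM EDTA and 100 mM KF. Anti-GST-Eu(K)/anti-6His-XL665 HTRF was read after 4 hr, and IC50 came from a four-parameter fit (≥2 replicates).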

Sequence of SOS1/KRAS WT (Q07889 564-1049): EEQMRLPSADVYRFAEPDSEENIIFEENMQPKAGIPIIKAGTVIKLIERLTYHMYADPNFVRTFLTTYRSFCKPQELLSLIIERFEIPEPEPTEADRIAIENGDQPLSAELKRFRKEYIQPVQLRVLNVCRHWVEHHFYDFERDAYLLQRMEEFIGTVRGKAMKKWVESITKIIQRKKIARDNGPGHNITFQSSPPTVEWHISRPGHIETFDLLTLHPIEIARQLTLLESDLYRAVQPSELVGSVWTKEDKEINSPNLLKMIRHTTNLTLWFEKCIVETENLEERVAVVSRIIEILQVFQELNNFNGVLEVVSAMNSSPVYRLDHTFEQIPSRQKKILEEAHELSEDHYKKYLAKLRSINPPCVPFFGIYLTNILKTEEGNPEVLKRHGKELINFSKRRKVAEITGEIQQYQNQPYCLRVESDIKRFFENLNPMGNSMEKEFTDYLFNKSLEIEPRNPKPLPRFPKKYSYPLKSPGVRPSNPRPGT

| SMILES | IC50 [nM] |
| --- | --- |
| COC1(C)C(=O)N(C)c2cc3c(N[C@H](C)c4cc(F)cc(C(F)(F)CO)c4C)nnc(C)c3cc21 (stereo partly drawn) [Compound 183, 3-methoxy-1,3,5-trimethyl-8-[[(1R)-1-[3-(1,1-difluoro-2-hydroxy-ethyl)-5-fluoro-2-methyl-phenyl]ethyl]amino]pyrrolo[2,3-g]phthalazin-2-one] | 11 |
| CCOC1(C)C(=O)N(C)c2cc3c(C)nnc(N[C@H](C)c4cccc(C(F)(F)C(C)(C)O)c4)c3cc21 (stereo partly drawn) [Compound 184, 3-ethoxy-1,3,8-trimethyl-5-[[(1R)-1-[3-(1,1-difluoro-2-hydroxy-2-methyl-propyl)phenyl]ethyl]amino]pyrrolo [3,2-g]phthalazin-2-one] | 14.8 |
| CCOC1(C)C(=O)N(C)c2cc3c(C)nnc(N[C@H](C)c4cccc(C(F)(F)C(C)(C)O)c4C)c3cc21 (stereo partly drawn) [Compound 185, 3-ethoxy-1,3,8-trimethyl-5-[[(1R)-1-[3-(1,1-difluoro-2-hydroxy-2-methyl-propyl)-2-methyl-phenyl]ethyl]amino]pyrrolo[3,2-g]phthalazin-2-one] | 24.5 |
| Cc1c([C@@H](C)Nc2nnc(C)c3cc4c(cc23)N(C)C(=O)C42CCCC2)cccc1C(F)(F)C(C)(C)O [Compound 186, 1′,5′-dimethyl-8′-[[(1R)-1-[3-(1,1-difluoro-2-hydroxy-2-methyl-propyl)-2-methyl-phenyl]ethyl]amino]spiro [cyclopentane-1,3′-pyrrolo[2,3-g]phthalazine]-2′-one] | 8.32 |
| Cc1nnc(N[C@H](C)c2cc(F)cc(C(F)(F)CO)c2)c2cc3c(cc12)C1(CCCC1)C(=O)N3C [Compound 187, 1′,5′-dimethyl-8′-[[(1R)-1-[3-(1,1-difluoro-2-hydroxy-ethyl)-5-fluoro-phenyl]ethyl]amino]spiro [cyclopentane-1,3′-pyrrolo[2,3-g]phthalazine]-2′-one] | 21.9 |
| Cc1nnc(N[C@H](C)c2cccc(C(F)(F)C(C)(C)O)c2)c2cc3c(cc12)C1(CCCC1)C(=O)N3C [Compound 188, 1′,5′-dimethyl-8′-[[(1R)-1-[3-(1,1-difluoro-2-hydroxy-2-methyl-propyl)phenyl]ethyl]amino]spiro [cyclopentane-1,3′-pyrrolo[2,3-g]phthalazine]-2′-one] | 9.33 |
| Cc1nnc(N[C@H](C)c2cccc(C(F)(F)CO)c2F)c2cc3c(cc12)C1(CCCC1)C(=O)N3C [Compound 189, 1′,5′-dimethyl-8′-[[(1R)-1-[3-(1,1-difluoro-2-hydroxy-ethyl)-2-fluoro-phenyl]ethyl]amino]spiro[cyclopentane-1,3′-pyrrolo[2,3-g]phthalazine]-2′-one] | 6.76 |
| CCOC1(C)C(=O)N(C)c2cc3c(C)nnc(N[C@H](C)c4cccc(C(F)(F)C(C)(C)O)c4F)c3cc21 (stereo partly drawn) [Compound 190, 3-ethoxy-1,3,8-trimethyl-5-[[(1R)-1-[3-(1,1-difluoro-2-hydroxy-2-methyl-propyl)-2-fluoro-phenyl]ethyl]amino]pyrrolo[3,2-g]phthalazin-2-one] | 16.6 |
| CCC1(OC)C(=O)N(C)c2cc3c(C)nnc(N[C@H](C)c4cccc(C(F)(F)C(C)(C)O)c4C)c3cc21 (stereo partly drawn) [Compound 191, 5-[[(1R)-1-[3-(1,1-difluoro-2-hydroxy-2-methyl-propyl)-2-methyl-phenyl]ethyl]amino]-3-ethyl-3-methoxy-1,8-dimethyl-pyrrolo[2,3-g]phthalazin-2-one] | 23.4 |
| CCC1(OC)C(=O)N(C)c2cc3c(C)nnc(N[C@H](C)c4cccc(C(F)(F)C(C)(C)O)c4)c3cc21 (stereo partly drawn) [Compound 192, 5-[[(1R)-1-[3-(1,1-difluoro-2-hydroxy-2-methyl-propyl)phenyl]ethyl]amino]-3-ethyl-3-methoxy-1,8-dimethyl-pyrrolo[2,3-g]phthalazin-2-one] | 16.2 |
| Cc1c([C@@H](C)Nc2nnc(C)c3cc4c(cc23)N(C)C(=O)C42CCCC2)cccc1C(F)(F)CO [Compound 193, 1′,5′-dimethyl-8′-[[(1R)-1-[3-(1,1-difluoro-2-hydroxy-ethyl)-2-methyl-phenyl]ethyl]amino]spiro[cyclopentane-1,3′-pyrrolo[2,3-g]phthalazine]-2′-one] | 8.71 |
| Cc1nnc(N[C@H](C)c2cccc(C(F)(F)C(C)(C)O)c2F)c2cc3c(cc12)C1(CCCC1)C(=O)N3C [Compound 194, 1′,5′-dimethyl-8′-[[(1R)-1-[3-(1,1-difluoro-2-hydroxy-2-methyl-propyl)-2-fluoro-phenyl]ethyl]amino]spiro [cyclopentane-1,3′-pyrrolo[2,3-g]phthalazine]-2′-one] | 8.51 |
| CCOC1(C)C(=O)N(C)c2cc3c(C)nnc(N[C@H](C)c4cccc(C(F)(F)CO)c4)c3cc21 (stereo partly drawn) [Compound 195, 3-ethoxy-1,3,8-trimethyl-5-[[(1R)-1-[3-(1,1-difluoro-2-hydroxy-ethyl)phenyl]ethyl]amino]pyrrolo [3,2-g]phthalazin-2-one] | 20.9 |
| CCC1(OC)C(=O)N(C)c2cc3c(C)nnc(N[C@H](C)c4cccc(C(F)(F)CO)c4)c3cc21 (stereo partly drawn) [Compound 196, 5-[[(1R)-1-[3-(1,1-difluoro-2-hydroxy-ethyl)phenyl]ethyl]amino]-3-ethyl-3-methoxy-1,8-dimethyl-pyrrolo[2,3-g]phthalazin-2-one] | 25.1 |
| CCC1(OC)C(=O)N(C)c2cc3c(C)nnc(N[C@H](C)c4cccc(C(F)(F)CO)c4F)c3cc21 (stereo partly drawn) [Compound 197, 5-[[(1R)-1-[3-(1,1-difluoro-2-hydroxy-ethyl)-2-fluoro-phenyl]ethyl]amino]-3-ethyl-3-methoxy-1,8-dimethyl-pyrrolo[2,3-g]phthalazin-2-one] | 14.5 |
| CCC1(OC)C(=O)N(C)c2cc3c(C)nnc(N[C@H](C)c4cccc(C(F)(F)CO)c4C)c3cc21 (stereo partly drawn) [Compound 198, 5-[[(1R)-1-[3-(1,1-difluoro-2-hydroxy-ethyl)-2-methyl-phenyl]ethyl]amino]-3-ethyl-3-methoxy-1,8-dimethyl-pyrrolo[2,3-g]phthalazin-2-one] | 19.5 |
| CCOC1(C)C(=O)N(C)c2cc3c(C)nnc(N[C@H](C)c4cccc(C(F)(F)CO)c4C)c3cc21 (stereo partly drawn) [Compound 199, 3-ethoxy-1,3,8-trimethyl-5-[[(1R)-1-[3-(1,1-difluoro-2-hydroxy-ethyl)-2-methyl-phenyl]ethyl]amino]pyrrolo[3,2-g]phthalazin-2-one] | 21.9 |
| CCc1nnc(N[C@H](C)c2cccc(C(F)(F)C(C)(C)O)c2F)c2cc3c(cc12)C(C)(OC)C(=O)N3C (stereo partly drawn) [Compound 200, 5-ethyl-3-methoxy-1,3-dimethyl-8-[[(1R)-1-[3-(1,1-difluoro-2-hydroxy-2-methyl-propyl)-2-fluoro-phenyl]ethyl]amino]pyrrolo[2,3-g]phthalazin-2-one] | 13.2 |
| CCOC1(C)C(=O)N(C)c2cc3c(C)nnc(N[C@H](C)c4cccc(C(F)(F)CO)c4F)c3cc21 (stereo partly drawn) [Compound 201, 3-ethoxy-1,3,8-trimethyl-5-[[(1R)-1-[3-(1,1-difluoro-2-hydroxy-ethyl)-2-fluoro-phenyl]ethyl]amino]pyrrolo[3,2-g]phthalazin-2-one] | 18.2 |
| CCC1(OC)C(=O)N(C)c2cc3c(N[C@H](C)c4cccc(C(F)(F)C(C)(C)O)c4)nnc(C)c3cc21 (stereo partly drawn) [Compound 202, 3-ethyl-3-methoxy-1,5-dimethyl-8-[[(1R)-1-[3-(1,1-difluoro-2-hydroxy-2-methyl-propyl)phenyl]ethyl]amino]pyrrolo [2,3-g]phthalazin-2-one] | 10.7 |
| CCC1(OC)C(=O)N(C)c2cc3c(N[C@H](C)c4cccc(C(F)(F)CO)c4C)nnc(C)c3cc21 (stereo partly drawn) [Compound 203, 3-ethyl-3-methoxy-1,5-dimethyl-8-[[(1R)-1-[3-(1,1-difluoro-2-hydroxy-ethyl)-2-methyl-phenyl]ethyl]amino]pyrrolo[2,3-g]phthalazin-2-one] | 11.7 |
| CCC1(OC)C(=O)N(C)c2cc3c(N[C@H](C)c4cccc(C(F)(F)C(C)(C)O)c4F)nnc(C)c3cc21 (stereo partly drawn) [Compound 204, 3-ethyl-3-methoxy-1,5-dimethyl-8-[[(1R)-1-[3-(1,1-difluoro-2-hydroxy-2-methyl-propyl)-2-fluoro-phenyl]ethyl]amino]pyrrolo[2,3-g]phthalazin-2-one] | 10 |
| Cc1nnc(N[C@H](C)c2cccc(C(F)F)c2)c2cc3c(cc12)n(C)c(=O)n3C(C)(C)C [Compound 205, 3-tert-butyl-5-[[(1R)-1-[3-(difluoromethyl)phenyl]ethyl]amino]-1,8-dimethyl-imidazo[4,5-g]phthalazin-2-one] | 11.7 |
| CCC1(OC)C(=O)N(C)c2cc3c(N[C@H](C)c4cccc(C(F)(F)CO)c4)nnc(C)c3cc21 (stereo partly drawn) [Compound 206, 3-ethyl-3-methoxy-1,5-dimethyl-8-[[(1R)-1-[3-(1,1-difluoro-2-hydroxy-ethyl)phenyl]ethyl]amino]pyrrolo [2,3-g]phthalazin-2-one] | 14.5 |
| CCC1(OC)C(=O)N(C)c2cc3c(N[C@H](C)c4cccc(C(F)(F)CO)c4F)nnc(C)c3cc21 (stereo partly drawn) [Compound 207, 3-ethyl-3-methoxy-1,5-dimethyl-8-[[(1R)-1-[3-(1,1-difluoro-2-hydroxy-ethyl)-2-fluoro-phenyl]ethyl]amino]pyrrolo[2,3-g]phthalazin-2-one] | 8.51 |
| CCC1(OC)C(=O)N(C)c2cc3c(N[C@H](C)c4cccc(C(F)(F)C(C)(C)O)c4C)nnc(C)c3cc21 (stereo partly drawn) [Compound 209, 3-ethyl-3-methoxy-1,5-dimethyl-8-[[(1R)-1-[3-(1,1-difluoro-2-hydroxy-2-methyl-propyl)-2-methyl-phenyl]ethyl]amino]pyrrolo[2,3-g]phthalazin-2-one] | 9.55 |
| Cc1c([C@@H](C)Nc2nnc(C)c3cc4c(cc23)n(C2CC2)c(=O)n4C)cccc1C(F)(F)C(C)(C)O [Compound 210, 3-cyclopropyl-5-[[(1R)-1-[3-(1,1-difluoro-2-hydroxy-2-methyl-propyl)-2-methyl-phenyl]ethyl]amino]-1,8-dimethyl-imidazo[4,5-g]phthalazin-2-one] | 13.2 |
